For 20 compounds, IC50 and EC50 results are on record in patent publication US11584747B2, “Substituted pyridopyrimidinonyl compounds useful as T cell activators” (BRISTOL-MYERS SQUIBB COMPANY, priority 2019, dated 2023).

For experiment [1], the target named is human DGKα (Homo sapiens (Human), UniProt P23743). The experiment in a line: DGKα ADPGLO assay (detergent/lipid micelle substrate). The settings on record: truncated DGK alpha; read-out: DGK alpha ADPGLO (Truncated) IC50. Format: biochemical. Here is the method:
DGK Alpha ADPGLO (Truncated) IC50 (uM)
The detergent/lipid micelle was prepared by combining 15 g phosphatidylserine (Avanti 840035P) and 1 g diacylglycerol (8008110) and dissolving into 150 mL chloroform in a 2 L round bottom flask. Chloroform was removed under high vacuum by rotary evaporation. […] The lipid/detergent solution was split into 5 mL aliquots and stored at −80° C.

In experiment [2] the target is human DGKζ (Homo sapiens (Human), UniProt Q13574). Put plainly: DGKζ LIPGLO assay (extruded liposome substrate, ADP-Glo luminescence). Type of experiment: biochemical. The settings on record: liposome assay; read-out: DGK zeta LIPGLO IC50.
The test system of experiment [3] is human venous whole blood (IFN-γ). The experiment in a line: Human whole blood IFN-γ assay. Format: cell-based. The settings on record: whole blood, normalized to 3 μM reference compound as 100% activation, read-out: IFN-γ Whole Blood Normalized EC50. Here is the method: Human venous whole blood (22.5 μL per well), obtained from healthy donors, was pre-treated with compounds for one hour at 37° C. in a humidified 95% air/5% CO2 incubator. The blood was stimulated with 2.5 μL anti-human CD3 and anti-CD28 mAb at a final concentration of 1 μg/mL each for 24 hours at 37° C. IFN-γ in the supernatants was measured using AlphLISA kit (Cat #AL217).

Like-named read-outs stand apart in the source and are kept apart here.

Chain of human DGKζ (Q13574 other isoform, or with tags, fused parts or gaps): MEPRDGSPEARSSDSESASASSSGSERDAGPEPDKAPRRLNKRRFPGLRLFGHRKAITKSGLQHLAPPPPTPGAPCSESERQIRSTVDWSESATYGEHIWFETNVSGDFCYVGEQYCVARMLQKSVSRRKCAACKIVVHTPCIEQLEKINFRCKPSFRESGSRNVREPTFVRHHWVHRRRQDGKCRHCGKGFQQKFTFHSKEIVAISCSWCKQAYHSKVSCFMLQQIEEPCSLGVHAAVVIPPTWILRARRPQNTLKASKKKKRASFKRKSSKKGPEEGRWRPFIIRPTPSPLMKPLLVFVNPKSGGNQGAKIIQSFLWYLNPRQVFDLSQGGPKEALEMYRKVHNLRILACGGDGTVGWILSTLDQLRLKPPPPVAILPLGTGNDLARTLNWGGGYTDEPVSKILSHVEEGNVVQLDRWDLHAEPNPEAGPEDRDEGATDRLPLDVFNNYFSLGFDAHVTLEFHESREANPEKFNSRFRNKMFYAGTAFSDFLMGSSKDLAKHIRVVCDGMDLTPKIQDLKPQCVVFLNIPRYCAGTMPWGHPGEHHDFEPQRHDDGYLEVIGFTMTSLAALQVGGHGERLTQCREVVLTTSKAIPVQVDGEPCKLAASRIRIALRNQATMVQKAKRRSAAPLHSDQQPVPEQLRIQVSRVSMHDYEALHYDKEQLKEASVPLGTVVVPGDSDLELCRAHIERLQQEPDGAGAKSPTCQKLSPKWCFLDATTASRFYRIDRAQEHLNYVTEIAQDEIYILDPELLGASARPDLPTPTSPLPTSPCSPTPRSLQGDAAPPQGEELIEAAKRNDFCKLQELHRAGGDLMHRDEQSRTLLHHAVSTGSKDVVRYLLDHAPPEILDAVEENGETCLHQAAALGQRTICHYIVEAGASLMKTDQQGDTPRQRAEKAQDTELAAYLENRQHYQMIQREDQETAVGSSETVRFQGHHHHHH
Chain of human DGKα (P23743 whole entry, looked up, the tested form may be a part): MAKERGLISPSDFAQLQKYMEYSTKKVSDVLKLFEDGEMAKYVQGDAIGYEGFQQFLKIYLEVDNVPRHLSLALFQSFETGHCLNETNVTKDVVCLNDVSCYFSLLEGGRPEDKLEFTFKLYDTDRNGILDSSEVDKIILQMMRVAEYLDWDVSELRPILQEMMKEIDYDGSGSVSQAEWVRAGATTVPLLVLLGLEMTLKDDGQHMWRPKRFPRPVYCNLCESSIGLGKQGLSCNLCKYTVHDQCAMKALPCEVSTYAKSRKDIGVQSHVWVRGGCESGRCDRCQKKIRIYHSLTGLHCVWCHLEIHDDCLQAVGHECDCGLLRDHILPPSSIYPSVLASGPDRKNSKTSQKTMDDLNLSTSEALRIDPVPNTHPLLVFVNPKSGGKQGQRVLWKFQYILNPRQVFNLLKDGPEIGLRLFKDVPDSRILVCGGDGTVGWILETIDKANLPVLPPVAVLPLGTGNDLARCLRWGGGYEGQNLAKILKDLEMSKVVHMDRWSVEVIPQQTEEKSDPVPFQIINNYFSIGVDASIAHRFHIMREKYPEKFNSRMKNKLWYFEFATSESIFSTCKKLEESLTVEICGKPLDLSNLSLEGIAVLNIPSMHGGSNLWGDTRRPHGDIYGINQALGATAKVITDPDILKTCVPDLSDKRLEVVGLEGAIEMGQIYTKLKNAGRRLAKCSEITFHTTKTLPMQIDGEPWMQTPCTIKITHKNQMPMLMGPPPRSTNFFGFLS

In the case of `CCC(c1ccc(OCC2CC2)cc1)N1C[C@H](CC)N(c2nc(=O)n(C)c3ccc(C#N)nc23)C[C@H]1CC` (stereo partly drawn) [Example 216, 4-((2S,5R)-4-(1-(4-(cyclopropylmethoxy)phenyl)propyl)-2,5-diethylpiperazin-1-yl)-1-methyl-2-oxo-1,2-dihydropyrido[3,2-d]pyrimidine-6-carbonitrile], the IC50 stood at 87 nM in experiment [1] and 88 nM in experiment [2]. Further, in experiment [3], the EC50 was 12 nM.

For the compound `CCC(c1ccc(OCC2CC2)cc1)N1C[C@H](CC)N(c2nc(=O)n(C)c3ccc(C#N)nc23)C[C@H]1CC` (stereo partly drawn) [Example 217, 4-((2S,5R)-4-(1-(4-(cyclopropylmethoxy)phenyl)propyl)-2,5-diethylpiperazin-1-yl)-1-methyl-2-oxo-1,2-dihydropyrido[3,2-d]pyrimidine-6-carbonitrile], the IC50 in experiment [1] was 1660 nM; in experiment [2], 4260 nM. Moreover, in experiment [3], the EC50 was 870 nM.

For `CCC(c1ccc(C#N)cc1)N1C[C@H](CC)N(c2nc(=O)n(C)c3ccc(C#N)nc23)C[C@H]1CC` (stereo partly drawn) [Example 220, 4-((2S,5R)-4-(1-(4-cyanophenyl)propyl)-2,5-diethylpiperazin-1-yl)-1-methyl-2-oxo-1,2-dihydropyrido[3,2-d] pyrimidine-6-carbonitrile], the IC50 is 110 nM in experiment [1] and 46 nM in experiment [2]. In addition, the concentration for a half-maximal effect (EC50) in experiment [3] was determined as 81 nM.

Regarding `CCC(c1ccc(C#N)cc1)N1C[C@H](CC)N(c2nc(=O)n(C)c3ccc(C#N)nc23)C[C@H]1CC` (stereo partly drawn) [Example 221, 4-((2S,5R)-4-(1-(4-cyanophenyl)propyl)-2,5-diethylpiperazin-1-yl)-1-methyl-2-oxo-1,2-dihydropyrido[3,2-d] pyrimidine-6-carbonitrile], the IC50 in experiment [1] turned out to be 2 nM; in experiment [2], 250 nM. Further, the EC50 in experiment [3] was found to be 480 nM.

In the case of `CCC(c1ccc(OC(F)F)cc1)N1C[C@H](CC)N(c2nc(=O)n(C)c3ccc(C#N)nc23)C[C@H]1CC` (stereo partly drawn) [Example 223, 4-((2S,5R)-4-(1-(4-(difluoromethoxy)phenyl)propyl)-2,5-diethylpiperazin-1-yl)-1-methyl-2-oxo-1,2-dihydropyrido[3,2-d]pyrimidine-6-carbonitrile], the IC50 is 130 nM in experiment [1] and 2080 nM in experiment [2]. In addition, the EC50 in experiment [3] (Homo sapiens) turned out to be 900 nM.

With `CCC(c1ccc(C(F)(F)F)nc1)N1C[C@H](CC)N(c2nc(=O)n(C)c3ccc(C#N)nc23)C[C@H]1CC` (stereo partly drawn) [Example 224, 4-((2S,5R)-2,5-diethyl-4-(1-(6-(trifluoromethyl)pyridin-3-yl)propyl)piperazin-1-yl)-1-methyl-2-oxo-1,2-dihydropyrido[3,2-d]pyrimidine-6-carbonitrile], the IC50 was 81 nM in experiment [1] and 140 nM in experiment [2]. The EC50 in experiment [3] was 120 nM.

For the compound `CCC(c1ccc(C(F)(F)F)nc1)N1C[C@H](CC)N(c2nc(=O)n(C)c3ccc(C#N)nc23)C[C@H]1CC` (stereo partly drawn) [Example 225, 4-((2S,5R)-2,5-diethyl-4-(1-(6-(trifluoromethyl)pyridin-3-yl)propyl)piperazin-1-yl)-1-methyl-2-oxo-1,2-dihydropyrido[3,2-d]pyrimidine-6-carbonitrile], the IC50 in experiment [1] came out at 460 nM; in experiment [2], 4130 nM. The EC50 in experiment [3] amounted to 610 nM.

With `CC[C@H]1CN(C(C)c2cnc(C(F)(F)F)nc2)[C@H](CC)CN1c1nc(=O)n(C)c2ccc(C#N)nc12` (stereo partly drawn) [Example 226, 4-((2S,5R)-2,5-diethyl-4-(1-(2-(trifluoromethyl)pyrimidin-5-yl)ethyl)piperazin-1-yl)-1-methyl-2-oxo-1,2-dihydropyrido[3,2-d]pyrimidine-6-carbonitrile], the IC50 in experiment [1] was 1210 nM; in experiment [2] it was 2650 nM. In addition, the half-maximal effective concentration (EC50) in experiment [3] amounted to 5600 nM.

Turning to `CC[C@H]1CN(C(C)c2cnc(C(F)(F)F)nc2)[C@H](CC)CN1c1nc(=O)n(C)c2ccc(C#N)nc12` (stereo partly drawn) [Example 227, 4-((2S,5R)-2,5-diethyl-4-(1-(2-(trifluoromethyl)pyrimidin-5-yl)ethyl)piperazin-1-yl)-1-methyl-2-oxo-1,2-dihydropyrido[3,2-d]pyrimidine-6-carbonitrile], the half-maximal inhibitory concentration (IC50) in experiment [1] was 2450 nM; in experiment [2], 1790 nM. In experiment [3], the EC50 turned out to be 640 nM.

`CC[C@H]1CN(C(C)c2ccc(C)nc2)[C@H](CC)CN1c1nc(=O)n(C)c2ccc(C#N)nc12` (stereo partly drawn) [Example 228, 4-((2S,5R)-2,5-diethyl-4-(1-(6-methylpyridin-3-yl)ethyl)piperazin-1-yl)-1-methyl-2-oxo-1,2-dihydropyrido[3,2-d]pyrimidine-6-carbonitrile]: the IC50 in experiment [1] came out at 190 nM; in experiment [2] it was 300 nM. The EC50 in experiment [3] was found to be 600 nM.

In the case of `CC[C@H]1CN(C(C)c2ccc(C)nc2)[C@H](CC)CN1c1nc(=O)n(C)c2ccc(C#N)nc12` (stereo partly drawn) [Example 229, 4-((2S,5R)-2,5-diethyl-4-(1-(6-methylpyridin-3-yl)ethyl)piperazin-1-yl)-1-methyl-2-oxo-1,2-dihydropyrido[3,2-d]pyrimidine-6-carbonitrile], the figures for the 50% inhibitory concentration (IC50) in experiment [1] and in experiment [2] were 680 nM and 3560 nM, respectively. Moreover, the 50% effective concentration (EC50) in experiment [3] came to 1610 nM.

`CC[C@H]1CN(C(C)c2ccc(N3CCCC3=O)cc2)[C@H](CC)CN1c1nc(=O)n(C)c2ccc(C#N)nc12` (stereo partly drawn) [Example 230, 4-((2S,5R)-2,5-diethyl-4-(1-(4-(2-oxopyrrolidin-1-yl)phenyl)ethyl)piperazin-1-yl)-1-methyl-2-oxo-1,2-dihydropyrido[3,2-d]pyrimidine-6-carbonitrile]: the IC50 was found to be 42 nM in experiment [1] and 130 nM in experiment [2]. Also, the EC50 in experiment [3] turned out to be 1290 nM.

`CCC(c1ccc(OC(F)F)cc1F)N1C[C@H](CC)N(c2nc(=O)n(C)c3ccc(C#N)nc23)C[C@H]1CC` (stereo partly drawn) [Example 233, 4-((2S,5R)-4-(1-(4-(difluoromethoxy)-2-fluorophenyl)propyl)-2,5-diethylpiperazin-1-yl)-1-methyl-2-oxo-1,2-dihydropyrido[3,2-d]pyrimidine-6-carbonitrile]: the figures for the 50% inhibitory concentration (IC50) in experiment [1] and in experiment [2] were 170 nM and 950 nM, respectively. Further, the concentration giving a half-maximal response (EC50) in experiment [3] was 2770 nM.

Consider `CCC(c1ccc(C)cc1)N1C[C@H](CC)N(c2nc(=O)n(C)c3ccc(C#N)nc23)C[C@H]1CC` (stereo partly drawn) [Example 237, 4-((2S,5R)-2,5-diethyl-4-(1-(p-tolyl)propyl)piperazin-1-yl)-1-methyl-2-oxo-1,2-dihydropyrido[3,2-d]pyrimidine-6-carbonitrile], for which the half-maximal inhibitory concentration (IC50) came to 53 nM in experiment [1] and 3960 nM in experiment [2]. The EC50 in experiment [3] was found to be 1430 nM.

Regarding `CCC(c1ccc(Cl)cc1F)N1C[C@H](CC)N(c2nc(=O)n(C)c3ccc(C#N)nc23)C[C@H]1CC` (stereo partly drawn) [Example 238, 4-((2S,5R)-4-(1-(4-chloro-2-fluorophenyl)propyl)-2,5-diethylpiperazin-1-yl)-1-methyl-2-oxo-1,2-dihydropyrido[3,2-d]pyrimidine-6-carbonitrile], the IC50 is 15 nM in experiment [1] and 110 nM in experiment [2]. In addition, the EC50 in experiment [3] is 23 nM.

In the case of `CCC(c1ccc(Cl)cc1F)N1C[C@H](CC)N(c2nc(=O)n(C)c3ccc(C#N)nc23)C[C@H]1CC` (stereo partly drawn) [Example 239, 4-((2S,5R)-4-(1-(4-chloro-2-fluorophenyl)propyl)-2,5-diethylpiperazin-1-yl)-1-methyl-2-oxo-1,2-dihydropyrido[3,2-d]pyrimidine-6-carbonitrile], the 50% inhibitory concentration (IC50) in experiment [1] is 94 nM; in experiment [2], 2230 nM. Besides, in experiment [3], the EC50 worked out at 2850 nM.

In the case of `CC[C@H]1CN(C(C)c2ccc(C(=O)OC)cc2)[C@H](CC)CN1c1nc(=O)n(C)c2ccc(C#N)nc12` (stereo partly drawn) [Example 265, methyl 4-(1-((2R,5S)-4-(6-cyano-1-methyl-2-oxo-1,2-dihydropyrido[3,2-d]pyrimidin-4-yl)-2,5-diethylpiperazin-1-yl)ethyl)benzoate], the figures for the half-inhibitory concentration (IC50) in experiment [1] and in experiment [2] were 790 nM and 370 nM, respectively. For the same compound, the concentration for a half-maximal effect (EC50) in experiment [3] stood at 1590 nM.

`CC[C@H]1CN(C(C)c2ccc(C(=O)OC)cc2)[C@H](CC)CN1c1nc(=O)n(C)c2ccc(C#N)nc12` (stereo partly drawn) [Example 266, methyl 4-(1-((2R,5S)-4-(6-cyano-1-methyl-2-oxo-1,2-dihydropyrido[3,2-d]pyrimidin-4-yl)-2,5-diethylpiperazin-1-yl)ethyl)benzoate]: the results for the half-inhibitory concentration (IC50) in experiment [1] and in experiment [2] were 83 nM and 28 nM, respectively. Further, the concentration giving a half-maximal response (EC50) in experiment [3] turned out to be 180 nM.

Regarding `CCC(c1ccc(CN2CCOCC2)cc1)N1C[C@H](CC)N(c2nc(=O)n(C)c3ccc(C#N)nc23)C[C@H]1CC` (stereo partly drawn) [Example 268, 4-((2S,5R)-2,5-diethyl-4-(1-(4-(morpholinomethyl)phenyl)propyl)piperazin-1-yl)-1-methyl-2-oxo-1,2-dihydropyrido[3,2-d]pyrimidine-6-carbonitrile], the IC50 was determined as 340 nM in experiment [1] and 4060 nM in experiment [2]. The EC50 in experiment [3] stood at 1000 nM.

For the compound `CC[C@H]1CN(C(C)c2ccc(CO)cc2)[C@H](CC)CN1c1nc(=O)n(C)c2ccc(C#N)nc12` (stereo partly drawn) [Example 270, 4-((2S,5R)-2,5-Diethyl-4-(1-(4-(hydroxymethyl)phenyl)ethyl)piperazin-1-yl)-1-methyl-2-oxo-1,2-dihydropyrido[3,2-d]pyrimidine-6-carbonitrile], the concentration for half-maximal inhibition (IC50) was determined as 8 nM in experiment [1] and 2320 nM in experiment [2]. In experiment [3], the EC50 turned out to be 1390 nM.
